Converted amounts (≈) assume the structure as drawn.
Biological target: T1, Phosphatidylinositol 4-kinase, PI4K (Homo sapiens, UniProt Q9BTU6+Q8TCG2+Q9UBF8+P42356)
Experiment: Inhibition of Phosphatidylinositol 4-kinase of human epidermoid carcinoma A431 cells (Not prepared)
Assay type: cell-based
Conditions: a-431

SMILES | IC50
NC(=O)NCCCNC(=O)c1c[nH]c2nc(N)nc(O)c12 | Not prepared
N=C(S)CCNC(=O)c1c[nH]c2nc(N)nc(O)c12 | Not prepared

Biological target: T1, Phosphatidylinositol 4-kinase, PI4K
Experiment: Inhibition of Phosphatidylinositol 4-kinase of human epidermoid carcinoma A431 cells
Assay type: cell-based
Conditions: a-431

SMILES | IC50 [µg/mL]
N#CCCNC(=O)c1c[nH]c2nc(N)nc(O)c12 | 0.45 (≈ 1.83 µM)
N=C(N)NCCCNC(=O)c1c[nH]c2nc(N)nc(O)c12 | 0.15 (≈ 0.513 µM)
NC(=O)CCNC(=O)c1c[nH]c2nc(N)nc(O)c12 | 0.02 (≈ 0.0757 µM)
COC(=O)CCNC(=O)c1c[nH]c2nc(N)nc(O)c12 | 0.3 (≈ 1.07 µM)
N=C(N)CCNC(=O)c1cn(C2O[C@H](CO)C(O)[C@H]2O)c2nc(N)nc(O)c12 (single isomer, unassigned) | 100 (≈ 253 µM)
NCCCNC(=O)c1cn(C2O[C@H](CO)C(O)[C@H]2O)c2nc(N)nc(O)c12 (single isomer, unassigned) | > 100
N=C(S)CCNC(=O)c1cn(C2O[C@H](CO)C(O)[C@H]2O)c2nc(N)nc(O)c12 (single isomer, unassigned) | > 100
NC(=O)CCNC(=O)c1cn(C2O[C@H](CO)C(O)[C@H]2O)c2nc(N)nc(O)c12 (single isomer, unassigned) | 2.4 (≈ 6.06 µM)
NC(=O)NCCCNC(=O)c1cn(C2O[C@H](CO)C(O)[C@H]2O)c2nc(N)nc(O)c12 (single isomer, unassigned) | 1 (≈ 2.35 µM)
N=C(N)NCCCNC(=O)c1cn(C2O[C@H](CO)C(O)[C@H]2O)c2nc(N)nc(O)c12 (single isomer, unassigned) | 7.5 (≈ 17.7 µM)
COC(=O)CCNC(=O)c1cn(C2O[C@H](CO)C(O)[C@H]2O)c2nc(N)nc(O)c12 (single isomer, unassigned) | 25 (≈ 60.8 µM)
N#CCCNC(=O)c1cn(C2O[C@H](CO)C(O)[C@H]2O)c2nc(N)nc(O)c12 (single isomer, unassigned) | > 100
NCCCNC(=O)c1c[nH]c2nc(N)nc(O)c12 [ECHIGUANINE B] | 0.18 (≈ 0.719 µM)
